Measurements reported in PubChem BioAssay (NCI).
Where “and” joins values, the source holds several entries; their conditions need not be identical. Identical values can stand only once.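 Following 48 hours of exposure in 96-well plates, responses at five concentrations were used to interpolate endpoints linearly. At the GI50, growth is halved. At the TGI there is no net growth.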 Where a SMILES comes first, the peptide text is derived from it. The star is where a group is joined. Boc = CC(C)(C)OC(=O)*; OSu = O=C1CCC(=O)N1O*

Tests used:
Experiment in all cases: inhibition of tumour cell growth, NCI panel, 48 h
SK-MEL-5 melanoma = test system: SK-MEL-5 melanoma
SNB-78 CNS = test system: SNB-78 CNS
LXFL 529 NSCLC = test system: LXFL 529 NSCLC
DLD-1 colon = test system: DLD-1 colon
HOP-18 NSCLC = test system: HOP-18 NSCLC
XF 498 CNS = test system: XF 498 CNS
KM20L2 colon = test system: KM20L2 colon
DMS 114 small cell lung = test system: DMS 114 small cell lung
M19-MEL melanoma = test system: M19-MEL melanoma
DMS 273 small cell lung = test system: DMS 273 small cell lung
RXF-631 renal = test system: RXF-631 renal

Compound: O=c1c2ccccc2[nH]c(=S)n1-c1ccc(N=Nc2cccc3c(O)cccc23)cc1
- TGI (SK-MEL-5 melanoma): > 100 µM

Compound: CC(C)(C)OC(=O)NCCCCC(NC(=O)OCc1ccccc1)C(N)=O (configuration not stated)
- TGI (SK-MEL-5 melanoma): > 100 µM

Compound: O=c1[nH]c2nc3ccccc3c(=O)n2/c1=C/c1ccc(O)cc1
- TGI (SK-MEL-5 melanoma): > 100 µM

Compound: Nc1nc(Cl)cc(NCC2(CO)CC(CCc3ccccc3)C2)n1 (configuration not stated)
- TGI (SK-MEL-5 melanoma): > 38.1 µM

Compound: CCN(CC)CCOC(c1cc(OC)ccc1OC)c1ccc2n1-c1ccccc1OC2 (configuration not stated)
- TGI (SK-MEL-5 melanoma): 22.2 µM

Compound: CCCN=C1CC(C)Nc2ccccc2N1 (configuration not stated)
- TGI (SK-MEL-5 melanoma): > 100 µM

Compound: CCC(=O)C(c1ccccc1)c1ccccn1 (configuration not stated)
- TGI (SK-MEL-5 melanoma): > 100 µM

Compound: C=CC(=O)c1ccc2c(c1)OCCOCCOCCOCCOCCO2
- TGI (SK-MEL-5 melanoma): > 100 µM
- TGI (SNB-78 CNS): 35.2 µM
- TGI (LXFL 529 NSCLC): 30.8 µM
- TGI (DLD-1 colon): 30.1 µM
- TGI (HOP-18 NSCLC): 30.2 µM
- TGI (XF 498 CNS): 28.7 µM
- TGI (KM20L2 colon): > 100 µM
- TGI (DMS 114 small cell lung): 41 µM
- TGI (M19-MEL melanoma): 32.2 µM
- TGI (DMS 273 small cell lung): 29.1 µM

Compound: C[N+](C)(C)CC(=O)N/N=c1\cc(C(=O)Nc2ccc(N=O)cc2C#N)oc2cc(O)ccc12
- TGI (SK-MEL-5 melanoma): > 100 µM
- TGI (SNB-78 CNS): > 100 µM
- TGI (LXFL 529 NSCLC): > 100 µM
- TGI (DLD-1 colon): > 100 µM
- TGI (HOP-18 NSCLC): > 100 µM
- TGI (RXF-631 renal): > 100 µM
- TGI (XF 498 CNS): > 100 µM
- TGI (KM20L2 colon): > 100 µM
- TGI (DMS 114 small cell lung): > 100 µM
- TGI (M19-MEL melanoma): > 100 µM
- TGI (DMS 273 small cell lung): > 100 µM

Compound: N#C/C(=C\NC(=S)Nc1ccc(S(=O)(=O)Nc2ccccn2)cc1)C(N)=O
- TGI (SK-MEL-5 melanoma): > 100 µM

Compound: COC(=O)C1(Cc2ccccc2)Cc2cc3c(cc2C1=O)CCC3 (configuration not stated)
- TGI (SK-MEL-5 melanoma): 33 µM

Compound: c1ccc(C[P+]2(c3ccccc3)c3ccccc3-c3ccccc32)cc1
- TGI (SK-MEL-5 melanoma): > 100 µM

Compound: CCCCCCCCCC[C@@H](O)[C@H]1CC[C@H]([C@H]2CC[C@H]([C@H](O)CCCCCCCCCC[C@@H]3CC(CC(C)=O)C(=O)O3)O2)O1 (some centres not stated)
- GI50 (SK-MEL-5 melanoma): 1.97 µM
- TGI (SK-MEL-5 melanoma): > 21.5 µM

Compound: COc1cc2oc(-c3ccc(O)cc3)c(OC3OC(C)C(O)C(O)C3O)c(=O)c2c(O)c1OC (configuration not stated)
- TGI (SK-MEL-5 melanoma): > 100 µM

Compound: COc1ccc2c(c1)c1c(n2CCN2CCOCC2)-c2ccccc2CC1
- TGI (SK-MEL-5 melanoma): 46.3 µM

Compound: CCCCc1c(O)nc(Nc2nc3ccccc3[nH]2)[nH]c1=O
- TGI (SK-MEL-5 melanoma): > 100 µM

Compound: CC(=O)C(CN1CCCCC1)C(c1ccccc1)c1c(O)c2ccccc2oc1=O (configuration not stated)
- TGI (SK-MEL-5 melanoma): > 100 µM

Compound: Nc1ccccc1Nc1ccccc1C(=O)[O-].Nc1ccccc1Nc1ccccc1C(=O)[O-].[Cu+2]
- TGI (SK-MEL-5 melanoma): > 100 µM
- TGI (XF 498 CNS): > 100 µM
- TGI (KM20L2 colon): > 100 µM

Compound: O=c1c2c3ccccc3[nH]c2c2cccc3c2n1CCC3
- TGI (SK-MEL-5 melanoma): 79.2 µM

Compound: Cc1ccc(-c2cc(N)n(-c3nc4c([nH]3)c(=O)n(C)c(=O)n4C)n2)cc1
- TGI (SK-MEL-5 melanoma): 17 µM

Compound: O=C1CC(c2ccco2)C2(C(=O)NC(=O)NC2=O)C(c2ccco2)C1 (configuration not stated)
- TGI (SK-MEL-5 melanoma): > 75 µM

Compound: COC(=O)c1cc(CC(C)C)c2c(c1)[nH]c1ccccc12
- TGI (SK-MEL-5 melanoma): > 100 µM
- TGI (LXFL 529 NSCLC): > 100 µM
- TGI (DLD-1 colon): > 100 µM
- TGI (XF 498 CNS): > 100 µM
- TGI (KM20L2 colon): > 100 µM
- TGI (DMS 114 small cell lung): > 100 µM
- TGI (M19-MEL melanoma): > 100 µM
- TGI (DMS 273 small cell lung): > 100 µM

Compound: CCCCN(CC)c1nc(C)nc2c1c(C)c(C)n2-c1c(C)cc(C)cc1C
- TGI (SK-MEL-5 melanoma): 17.6 µM

Compound: CCOC(=O)CCC(NC(=O)c1ccc(OCc2nc3cc(C(F)(F)F)ccc3nc2-c2ccccc2)cc1)C(=O)OCC (configuration not stated)
- TGI (SK-MEL-5 melanoma): 60.4 µM

Compound: CC1(C)CC2(C)CC1CC2O (configuration not stated)
- TGI (SK-MEL-5 melanoma): > 100 µM

Compound: COC1O[C@H]2CCN(C(=O)OCc3ccccc3)[C@H]2[C@H]1OCc1ccccc1 (some centres not stated)
- TGI (SK-MEL-5 melanoma): 64.6 µM
- TGI (SNB-78 CNS): > 100 µM
- TGI (LXFL 529 NSCLC): > 100 µM
- TGI (DLD-1 colon): > 100 µM
- TGI (HOP-18 NSCLC): > 100 µM
- TGI (XF 498 CNS): > 100 µM
- TGI (KM20L2 colon): > 100 µM
- TGI (DMS 114 small cell lung): > 86.2 µM
- TGI (M19-MEL melanoma): > 100 µM
- TGI (DMS 273 small cell lung): > 100 µM

Compound: COc1ccc(-c2c(C#N)c(S)n(C3OC(COC(C)=O)C(OC(C)=O)C(OC(C)=O)C3OC(C)=O)c(=O)c2C#N)cc1 (configuration not stated)
- GI50 (SK-MEL-5 melanoma): 60.7 µM and 29.3 µM
- TGI (SK-MEL-5 melanoma): > 100 µM

Compound: O=C1CC(O)c2c1csc2Br (configuration not stated)
- TGI (SK-MEL-5 melanoma): > 100 µM

Compound: Cc1ccccc1C1OC1C(=O)c1ccccc1N (configuration not stated)
- TGI (SK-MEL-5 melanoma): > 100 µM

Compound: N#CC1=C(N)OC2=C(CSc3ccccc32)C1c1ccc(Br)cc1 (configuration not stated)
- TGI (SK-MEL-5 melanoma): 25.7 µM

Compound: CC(C)(C)OC(=O)NC(Cc1ccc(O)cc1)C(=O)NC(CCCCN)C(=O)NC(Cc1ccc(O)cc1)C(=O)NC(CCCCN)C(=O)ON1C(=O)CCC1=O (configuration not stated) (Boc-YKYK-OSu; configuration not given here)
- TGI (SK-MEL-5 melanoma): > 100 µM

Compound: CC12CC(c3ccccc3O1)C(C(=O)Nc1ccc(F)cc1)C(=O)N2 (configuration not stated)
- TGI (SK-MEL-5 melanoma): > 100 µM

Compound: Cc1cc(=O)cc2sc3c(C)cccc3nc1-2
- TGI (SK-MEL-5 melanoma): 31.8 µM
- TGI (SNB-78 CNS): > 100 µM
- TGI (LXFL 529 NSCLC): 32.9 µM
- TGI (DLD-1 colon): 46.1 µM
- TGI (HOP-18 NSCLC): > 100 µM
- TGI (RXF-631 renal): > 100 µM
- TGI (M19-MEL melanoma): 36.5 µM
- TGI (DMS 273 small cell lung): > 100 µM

Compound: COc1ccc2nc(-c3ccc(OCc4ccccc4)cc3)ccc2c1
- TGI (SK-MEL-5 melanoma): > 100 µM
- TGI (SNB-78 CNS): > 100 µM
- TGI (LXFL 529 NSCLC): > 100 µM
- TGI (DLD-1 colon): > 100 µM
- TGI (HOP-18 NSCLC): > 100 µM
- TGI (XF 498 CNS): > 100 µM
- TGI (KM20L2 colon): > 100 µM
- TGI (DMS 114 small cell lung): > 100 µM
- TGI (M19-MEL melanoma): > 100 µM

Compound: CCOC(=O)c1cc(C2(O)CCN(Cc3ccccc3)C2=O)c(-c2cc(C)no2)[nH]1 (configuration not stated)
- TGI (SK-MEL-5 melanoma): > 100 µM

Compound: c1sc(NC2=NCCO2)c2c1CCCC2
- TGI (SK-MEL-5 melanoma): > 100 µM

Compound: O=C(NS(=O)(=O)Nc1ccc(Cl)cc1)OCc1ccc(Cl)cc1Cl
- TGI (SK-MEL-5 melanoma): 39.1 µM

Compound: O=C1CCCN(c2ccccc2)N1
- TGI (SK-MEL-5 melanoma): > 100 µM
- TGI (LXFL 529 NSCLC): > 100 µM
- TGI (RXF-631 renal): > 100 µM
- TGI (KM20L2 colon): > 100 µM
- TGI (DMS 114 small cell lung): > 100 µM
- TGI (M19-MEL melanoma): > 100 µM
- TGI (DMS 273 small cell lung): > 100 µM

Compound: O=C(Cc1nc2ccc(C(=O)c3ccccc3)cc2[nH]c1=O)C(=O)Nc1ccc(Br)cc1
- TGI (SK-MEL-5 melanoma): > 100 µM

Compound: COC(=O)C1=C(C(=O)OC)C2OC1C1C2C2(C)C(C)=C(C)C1(C)S2=O (configuration not stated)
- TGI (SK-MEL-5 melanoma): 19.2 µM

Compound: COc1ccc(Nc2c(C#N)c3n(c4ccccc24)c2ccccc2[n+]3C)cc1OC
- TGI (SK-MEL-5 melanoma): 15.5 µM

Compound: COc1cc(COC(=O)N[C@H](C(=O)O)C(C)(C)C)c([N+](=O)[O-])cc1OC
- TGI (SK-MEL-5 melanoma): > 100 µM
